How the values were obtained:
[1] = test system: hMC4R (R165W) knock-in mice; experiment: In vivo test of DCPMP on knock-in mouse model carrying human mutant form of MC4R (food intake, weight loss); details: 30 mg per kg i.p. one dose daily for 9 days
Method: (§1) Mice were intraperitoneally injected one dose daily with vehicle or DCPMP at 30 mg per kg one hour before light off, for 9 days. Data are the average daily food intake (A, B. C), or the mean of the total body weight loss [total body weight before treatment—total body weight after 9 days treatment] (D), for each experimental group, Data are expressed as Mean±SEM. Numbers of animal per genotype are indicated in brackets.
(§2) Mice were intraperitoneally injected one dose daily with vehicle or N-((2R)-3(2,4-dichlorophenyl)-1-(4-(2-((1-methoxypropan-2-ylamino)methyl)phenyl)piperazin-1-yl)-1-oxopropan-2-yl)propionamide (DCPMP) at 30 mg per kg one hour before light off, for 9 days.
(§3) Animals were individually housed for 4 days prior to starting experiments. […] All animals were weighed prior to compound injection, and doses were normalized to individual animal body weight. Mice were intraperitoneally injected one dose daily with vehicle (1% Tween 80) or DCPMP at 30 mg per kg one hour before lights off (at 5:00 PM), for 9 days. Weight was monitored every 3 days during treatment and after stopping treatment. Food intake was measured during the recovery time for 7 days. Data are the average daily food intake or the mean of total body weight loss [total body weight before treatment—total body weight after 9 days treatment].

[2] = test system: non-transgenic littermate mice; experiment: In vivo test of DCPMP in non-transgenic littermate mice (food intake); design: species or system mouse; details: at the beginning of DCPMP treatment, 30 mg per kg i.p. daily
Method: as §1, §2, §3

For `CCC(=O)N[C@H](Cc1ccc(Cl)cc1Cl)C(=O)N1CCN(c2ccccc2CNC(C)COC)CC1` (stereo partly drawn) [DCPMP, N-((2R)-3(2,4-dichlorophenyl)-1-(4-(2-((1-methoxypropan-2-ylamino)methyl)phenyl)piperazin-1-yl)-1-oxopropan-2-yl)propionamide], the food intake ([1]; hMC4R (R165W) male mice) was “reducing food intake”, the “weight loss, % of total weight” value ([1]; initially overweight heterozygous hMC4R (R165W) mice) was “up to 13%” and the “weight loss, % of total weight” value ([1]; initially overweight homozygous hMC4R (R165W) mice) was at most 15%. For the same compound, the food consumption [2] was “slightly reduced”.
